In PubChem BioAssay (NCI):
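96-well plates; 48 h exposure; 5 concentrations. Endpoints by linear interpolation between flanking doses. Not reached: highest tested concentration assigned. Here, GI50 denotes the concentration required for 50% inhibition of growth. The concentration for full growth arrest is given as TGI.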

Tests used:
Test in all cases: NCI tumour cell line growth inhibition, 48 h
[1] = test system: 786-0 renal
[2] = test system: OVCAR-4 ovarian
[3] = test system: NCI-H23 lung
[4] = test system: IGROV1 ovarian
[5] = test system: NCI-H522 lung
[6] = test system: NCI-H226 lung
[7] = test system: A498 renal
[8] = test system: UACC-257 melanoma
[9] = test system: SF-295 CNS
[10] = test system: SK-MEL-2 melanoma

Row | Structure (SMILES) | TGI [1] | TGI [2] | TGI [3] | TGI [4] | TGI [5] | TGI [6] | TGI [7] | TGI [8] | TGI [9] | TGI [10] | GI50 [1] | GI50 [2] | GI50 [10] | GI50 [4] | GI50 [5] | GI50 [6] | GI50 [7] | GI50 [8] | GI50 [9] | GI50 [3]
1 | O=S(=O)(O)CS(=O)(=O)OCCCl | > 100 µM | > 100 µM | > 100 µM | > 100 µM | > 100 µM | > 100 µM | > 100 µM | > 100 µM | > 100 µM | – | – | – | – | – | – | – | – | – | – | –
2 | COc1ccc(-c2oc3cc(O)c(OC)c(O)c3c(=O)c2OC2OC(CO)C(O)C(O)C2O)cc1 (stereo not given) | > 100 µM | > 100 µM | > 100 µM | > 100 µM | – | – | – | – | > 100 µM | > 100 µM | – | – | – | – | – | – | – | – | – | –
3 | N#Cc1ccccc1NC(=O)C(=O)C(C(=O)c1ccccc1-c1ccccc1)C1OC(=O)c2ccccc21 (stereo not given) | 33.5 µM | – | 26.1 µM | 66.7 µM | 21 µM | – | 45.2 µM | 53.8 µM | 58.3 µM | 32.1 µM | – | – | – | – | – | – | – | – | – | –
4 | CC1(C)N=C(N)N=C(N)N1c1cccc(/C=C/C=C/c2cccc([N+](=O)[O-])c2)c1 | 52.9 µM | 22.5 µM | – | 13.7 µM | 20.1 µM | 34.1 µM | 39.3 µM | 20.2 µM | 28.3 µM | 28.5 µM | 21.3 µM | 5.54 µM | 13.4 µM | 1.18 µM | 4.72 µM | 10.9 µM | 13 µM | 5.42 µM | 10.3 µM | –
5 | CCOC(=O)Cc1c(Cc2[nH]c(C(=O)OCc3ccccc3)c(CC(=O)OCC)c2CC(=O)OCC)[nH]c(C(=O)OCc2ccccc2)c1CC(=O)OCC | > 100 µM | – | – | > 100 µM | > 100 µM | – | > 100 µM | – | > 100 µM | – | – | – | – | – | – | – | – | – | – | –
6 | Cc1ccc(S(=O)(=O)N2CCCSCCSCCCSCC2)cc1 | > 100 µM | > 100 µM | > 100 µM | > 100 µM | > 100 µM | – | – | > 100 µM | > 100 µM | – | – | – | – | – | – | – | – | – | – | –
7 | Cc1ccc(S(=O)(=O)N/N=C/C(Br)=C(/Br)C(=O)O)cc1 | 14.8 µM | 19.7 µM | 15.2 µM | 34.7 µM | – | 27.9 µM | 32.3 µM | 26.8 µM | 36.3 µM | 35.1 µM | – | – | – | – | – | – | – | – | – | –
8 | O=[N+]([O-])c1ccc(N/N=C\c2cc(Cl)ccc2O)nc1 | 11.2 µM | 13.7 µM | 9 µM | 4.69 µM | – | > 100 µM | > 100 µM | 7.38 µM | 11.7 µM | 29.4 µM | 2.18 µM | 1.72 µM | 3.24 µM | 1.2 µM | – | 20.9 µM | 17 µM | 1.82 µM | 2.15 µM | 0.541 µM
9 | COc1c(OC(C)=O)ccc(/C=C2\N=C(C)OC2=O)c1[N+](=O)[O-] | > 100 µM | > 100 µM | – | > 100 µM | > 100 µM | – | > 100 µM | > 100 µM | > 100 µM | > 100 µM | – | – | – | – | – | – | – | – | – | –
10 | CC(=O)Oc1c(C)n(CCCl)ccc1=O | > 100 µM | > 100 µM | – | – | > 100 µM | > 100 µM | > 100 µM | > 100 µM | > 100 µM | > 100 µM | – | – | – | – | – | – | – | – | – | –
11 | O=C(Cc1ccccc1)NN1C(=O)C(Cl)C1c1cccc(O)c1 (stereo not given) | 31.5 µM | 40 µM | 35.2 µM | 34.8 µM | 23.2 µM | 43.4 µM | – | 35 µM | 40.4 µM | 59.5 µM | – | – | – | – | – | – | – | – | – | –
